Measured values: PMC11911254 (Pharmacological Reports, 2025)

Assay: Concentration of paracetamol and its metabolites in plasma, CSF and brain cortex by LC-MS/MS
Conditions: for concentration at 30 min: Sprague Dawley, rat; for Concentration in plasma / Concentration in brain: individual values if <3 samples
Method: Drug injection protocol is illustrated in Fig. 1.
Male and female postnatal P4 pups and 7–8 week-old non-pregnant females were used. […] In combination therapy experiments, this dose was accompanied by one of the 7 other drugs (Table 1). For all experiments, animals were terminally anesthetized 30 min after the drug injection using inhaled isoflurane (IsoFlo 100% w/w, Abbott Laboratories), and blood, CSF, and brain samples were collected. Blood was collected directly from the right cardiac ventricle, CSF from the cisterna magna, and cortical brain samples from the frontal/parietal lobes dorsal to the lateral ventricles as described previously.
Pregnant E19 dams were anesthetized with ip urethane injection (25% w/v urethane, Sigma, 1 ml/100 g body weight) and placed on a 39 °C heating pad in the supine position. An endotracheal catheter was inserted to maintain a clear airway. Catheters were inserted into the femoral vein and artery for iv drug administration and arterial blood sampling respectively. The cannula was flushed with 0.5 ml of heparinized saline (Hospira Inc, 5,000 units/ml) after drug administration and following each arterial blood sample. Following drug administration to the dams, fetuses were exteriorized and serially collected starting at 30 min post-maternal injection. […] At collection, the viability of each fetus was assessed (presence of a heartbeat, the colour of the umbilical vessels) and blood, CSF, and brain samples were taken along with a time-matched maternal blood sample from the femoral artery. At the end of the experiment, a final maternal blood sample was taken directly from the left cardiac ventricle, and CSF and brain samples were collected.
This method has been described previously for valproate, lamotrigine, and olanzapine and was applied in the present study. Simultaneous quantification was performed for all compounds in plasma, brain, and CSF samples following the addition of respective stable isotope-labeled internal standards.
Linear response range was determined in untreated control rat plasma for each compound at 0.1, 1, 10, 50, 100, 200, 400, and 800 µg/ml.

[1] = non-pregnant adult rats, 30 min after ip paracetamol 15 mg/kg + lamotrigine 6 mg/kg (PARA+LTG, n=3), median (IQR)

CC(=O)Nc1ccc(O)cc1 [Paracetamol, reference compound]
concentration at 30 min (both, brain cortex, intraperitoneal, Concentration in brain, P4 rats, 30 min after ip paracetamol 15 mg/kg + cimetidine 11 mg/kg (PARA+CIM, n=4), median (IQR)): 9000 ng/mL | concentration at 30 min (both, brain cortex, intraperitoneal, Concentration in brain, P4 rats, 30 min after ip paracetamol 15 mg/kg + digoxin 0.03 mg/kg (PARA+DIG, n=4), median (IQR)): 10300 ng/mL | concentration at 30 min (both, brain cortex, intraperitoneal, Concentration in brain, P4 rats, 30 min after ip paracetamol 15 mg/kg + fluvoxamine 1.5 mg/kg (PARA+FLX, n=4), median (IQR) or individual values): 8700 ng/mL | concentration at 30 min (both, brain cortex, intraperitoneal, Concentration in brain, P4 rats, 30 min after ip paracetamol 15 mg/kg + lamotrigine 6 mg/kg (PARA+LTG, n=5), median (IQR)): 9900 ng/mL | concentration at 30 min (both, brain cortex, intraperitoneal, Concentration in brain, P4 rats, 30 min after ip paracetamol 15 mg/kg + lithium 3.2 mg/kg (PARA+Li, n=4), median (IQR)): 7600 ng/mL | concentration at 30 min (both, brain cortex, intraperitoneal, Concentration in brain, P4 rats, 30 min after ip paracetamol 15 mg/kg + olanzapine 0.15 mg/kg (PARA+OLZ, n=4), median (IQR)): 6900 ng/mL | concentration at 30 min (both, brain cortex, intraperitoneal, Concentration in brain, P4 rats, 30 min after ip paracetamol 15 mg/kg + valproate 30 mg/kg (PARA+VPA, n=4), median (IQR) or individual values): 5300 ng/mL | concentration at 30 min (both, brain, CSF, 15 mg/kg, brain and CSF concentrations, monotherapy 15 mg/kg, 30 min, all ages (E19, P4, adult)): 5000 to 10000 ng/mL | concentration at 30 min (both, plasma, intraperitoneal, 15 mg/kg, Concentration in plasma, P4 rats, 30 min after ip paracetamol 15 mg/kg monotherapy (PARA, n=4), median (IQR)): 5600 ng/mL | concentration at 30 min (both, plasma, intraperitoneal, Concentration in plasma, P4 rats, 30 min after ip paracetamol 15 mg/kg + cimetidine 11 mg/kg (PARA+CIM, n=4), median (IQR)): 10600 ng/mL | concentration at 30 min (both, plasma, intraperitoneal, Concentration in plasma, P4 rats, 30 min after ip paracetamol 15 mg/kg + digoxin 0.03 mg/kg (PARA+DIG, n=4), median (IQR)): 8200 ng/mL | concentration at 30 min (both, plasma, intraperitoneal, Concentration in plasma, P4 rats, 30 min after ip paracetamol 15 mg/kg + fluvoxamine 1.5 mg/kg (PARA+FLX, n=4), median (IQR)): 6500 ng/mL | concentration at 30 min (both, plasma, intraperitoneal, Concentration in plasma, P4 rats, 30 min after ip paracetamol 15 mg/kg + lamotrigine 6 mg/kg (PARA+LTG, n=5), median (IQR)): 7200 ng/mL | concentration at 30 min (both, plasma, intraperitoneal, Concentration in plasma, P4 rats, 30 min after ip paracetamol 15 mg/kg + lithium 3.2 mg/kg (PARA+Li, n=4), median (IQR)): 4300 ng/mL | concentration at 30 min (both, plasma, intraperitoneal, Concentration in plasma, P4 rats, 30 min after ip paracetamol 15 mg/kg + olanzapine 0.15 mg/kg (PARA+OLZ, n=4), median (IQR)): 5600 ng/mL | concentration at 30 min (both, plasma, intraperitoneal, Concentration in plasma, P4 rats, 30 min after ip paracetamol 15 mg/kg + valproate 30 mg/kg (PARA+VPA, n=4), median (IQR) or individual values): 6700 ng/mL | concentration at 30 min (both, plasma, intraperitoneal, concentration in plasma, P4, monotherapy and combination therapy with any of the drugs investigated): ~5000 ng/mL | concentration at 30 min (female, CSF, intraperitoneal, 15 mg/kg, Concentration in CSF, non-pregnant adult rats, 30 min after ip paracetamol 15 mg/kg monotherapy (PARA, n=6), median (IQR)): 5300 ng/mL | concentration at 30 min (female, CSF, intraperitoneal, Concentration in CSF, non-pregnant adult rats, 30 min after ip paracetamol 15 mg/kg + cimetidine 11 mg/kg (PARA+CIM, n=3), median (IQR)): 2100 ng/mL | concentration at 30 min (female, CSF, intraperitoneal, Concentration in CSF, non-pregnant adult rats, 30 min after ip paracetamol 15 mg/kg + digoxin 0.03 mg/kg (PARA+DIG, n=3), median (IQR)): 4200 ng/mL | concentration at 30 min (female, CSF, intraperitoneal, Concentration in CSF, non-pregnant adult rats, 30 min after ip paracetamol 15 mg/kg + fluvoxamine 1.5 mg/kg (PARA+FLX, n=4), median (IQR)): 4400 ng/mL | concentration at 30 min (female, CSF, intraperitoneal, Concentration in CSF, non-pregnant adult rats, 30 min after ip paracetamol 15 mg/kg + olanzapine 0.15 mg/kg (PARA+OLZ, n=4), median (IQR)): 4200 ng/mL | concentration at 30 min (female, CSF, intraperitoneal, Concentration in CSF, non-pregnant adult rats, 30 min after ip paracetamol 15 mg/kg + valproate 30 mg/kg (PARA+VPA, n=3), median (IQR)): 4700 ng/mL | concentration at 30 min (female, brain, intraperitoneal, 15 mg/kg, Concentration in brain, non-pregnant adult rats, 30 min after ip paracetamol 15 mg/kg monotherapy (PARA, n=6), median (IQR)): 8100 ng/mL | concentration at 30 min (female, brain, intraperitoneal, Concentration in brain, non-pregnant adult rats, 30 min after ip paracetamol 15 mg/kg + cimetidine 11 mg/kg (PARA+CIM, n=3), median (IQR)): 2900 ng/mL | concentration at 30 min (female, brain, intraperitoneal, Concentration in brain, non-pregnant adult rats, 30 min after ip paracetamol 15 mg/kg + olanzapine 0.15 mg/kg (PARA+OLZ, n=4), median (IQR)): 3900 ng/mL | concentration at 30 min (female, brain, intraperitoneal, Concentration in brain, non-pregnant adult rats, 30 min after ip paracetamol 15 mg/kg + valproate 30 mg/kg (PARA+VPA, n=3), median (IQR)): 7500 ng/mL | concentration at 30 min (female, plasma, intraperitoneal, 15 mg/kg, Concentration in plasma, non-pregnant adult rats, 30 min after ip paracetamol 15 mg/kg monotherapy (PARA, n=6), median (IQR)): 8400 ng/mL | concentration at 30 min (female, plasma, intraperitoneal, Concentration in plasma, non-pregnant adult rats, 30 min after ip paracetamol 15 mg/kg + digoxin 0.03 mg/kg (PARA+DIG, n=3), median (IQR)): 4400 ng/mL | concentration at 30 min (female, plasma, intraperitoneal, Concentration in plasma, non-pregnant adult rats, 30 min after ip paracetamol 15 mg/kg + fluvoxamine 1.5 mg/kg (PARA+FLX, n=4), median (IQR)): 4600 ng/mL | concentration at 30 min (female, plasma, intraperitoneal, Concentration in plasma, non-pregnant adult rats, 30 min after ip paracetamol 15 mg/kg + olanzapine 0.15 mg/kg (PARA+OLZ, n=4), median (IQR)): 6700 ng/mL | Concentration in plasma (non-pregnant adult rats, 30 min after ip paracetamol 15 mg/kg + cimetidine 11 mg/kg (PARA+CIM, n=3), median (IQR)): 3.4 (1.0) µg/ml | Concentration in brain (non-pregnant adult rats, 30 min after ip paracetamol 15 mg/kg + digoxin 0.03 mg/kg (PARA+DIG, n=3), median (IQR)): 4.3 (1.6) µg/ml | Concentration in brain [1]: 7.1 (0.7) µg/ml | Concentration in plasma [1]: 7.5 (1.0) µg/ml | Concentration in plasma (non-pregnant adult rats, 30 min after ip paracetamol 15 mg/kg + valproate 30 mg/kg (PARA+VPA, n=3), median (IQR)): 7.5 (1.3) µg/ml
